Test systems include ACHN renal; CCRF-CEM leukemia; HCC-2998 colon; HCT-116 colon; SK-MEL-28 melanoma; SNB-19 CNS; SR leukemia; SW-620 colon; TK-10 renal; XF 498 CNS; KM20L2 colon.
What all share (assay): NCI tumour cell line growth inhibition, 48 h

SMILES strings stand for the structures.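 Where inhibition never reached the appropriate level, the endpoint shown equals the highest concentration tested. Otherwise, values were interpolated linearly from a five-concentration, 48-hour dose response in 96-well plates. TGI: total growth inhibition.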

As to `Cc1c[n+]2c3ccccc3c3ccccc3c2s1`, the TGI in the assay on ACHN renal was above 100 µM; in the assay with CCRF-CEM leukemia, 28.4 µM; in the assay with HCC-2998 colon, 13.7 µM; in the assay with HCT-116 colon, above 70.1 µM; in the assay on SK-MEL-28 melanoma, 18 µM; in the assay on SNB-19 CNS it was 15.6 µM. The TGI is 32.3 µM with SR leukemia, above 75.5 µM with SW-620 colon, above 70.9 µM with TK-10 renal and 18 µM in the assay with XF 498 CNS.
Turning to `C=CCNC(=S)N1CC(C)C(=O)Nc2cc(Cl)ccc21` (stereo not drawn), the TGI in the assay with ACHN renal, in the assay with HCT-116 colon, with KM20L2 colon, in the assay with SK-MEL-28 melanoma, with SNB-19 CNS and in the assay with SR leukemia was above 100 µM in each case. In the assay on TK-10 renal, this compound showed a TGI above 100 µM.
On to `COc1cc(C2c3cc4c(cc3[C@@H](Nc3cccc(CO)c3)C3COC(=O)[C@H]23)OCO4)cc(OC)c1O` (stereo partly drawn), for which the TGI is 0.732 µM in the assay on CCRF-CEM leukemia; 3.79 µM with HCC-2998 colon; 11.6 µM with HCT-116 colon; 22.7 µM with SK-MEL-28 melanoma; 15.7 µM with SNB-19 CNS; above 41.3 µM in the assay with SW-620 colon. For the same compound, the TGI in the assay with XF 498 CNS came to 5.63 µM.
On to `COc1ccc(C2=NN(c3ccccc3)C[N+](c3ccc(C)cc3)=N2)cc1`, for which the TGI was above 100 µM in the assay on ACHN renal; 60.8 µM in the assay with CCRF-CEM leukemia; above 100 µM with HCC-2998 colon; above 100 µM in the assay with HCT-116 colon; above 100 µM in the assay on KM20L2 colon; above 100 µM in the assay on SK-MEL-28 melanoma. The TGI in the assay with SNB-19 CNS is above 100 µM; in the assay with SR leukemia, above 100 µM; in the assay with SW-620 colon, 64.4 µM; in the assay on TK-10 renal, above 100 µM; with XF 498 CNS, 52.9 µM.
On to `Cc1[nH]c(=O)[nH]c(=O)c1/C=C/C(=O)O` (tested in a mixture with another compound), for which the TGI in the assay on CCRF-CEM leukemia, in the assay on HCC-2998 colon, in the assay on HCT-116 colon, in the assay on KM20L2 colon, in the assay with SK-MEL-28 melanoma and with SNB-19 CNS was above 625 µM throughout. Also, the TGI in the assay on SW-620 colon and in the assay on XF 498 CNS was above 625 µM in each case.
With `COc1cc2c3cc1Oc1c(O)c(OC)cc4c1C(Cc1ccc(O)c(c1)Oc1ccc(cc1)CC3N(C)CC2)N(C)CC4` (stereo not drawn), the TGI was 33.7 µM in the assay with ACHN renal; 36.7 µM with CCRF-CEM leukemia; 13.6 µM in the assay with HCC-2998 colon; 22.5 µM with HCT-116 colon; 17.4 µM in the assay with KM20L2 colon; 32.8 µM in the assay on SK-MEL-28 melanoma. In addition, the TGI in the assay on SNB-19 CNS stood at 68 µM; in the assay with SW-620 colon, 16.7 µM; in the assay with TK-10 renal, 18.2 µM; with XF 498 CNS, 33.5 µM.
As to `O=C1C=CC2OC(c3ccccc3)C(O)C2O1` (stereo not drawn), the TGI was found to be 11.6 µM with CCRF-CEM leukemia; 10.9 µM in the assay on HCC-2998 colon; 10.6 µM with HCT-116 colon; 23.8 µM in the assay on KM20L2 colon; 11.8 µM with SK-MEL-28 melanoma; 30.2 µM with SNB-19 CNS. Moreover, the TGI in the assay with SW-620 colon was found to be 9.87 µM; in the assay on XF 498 CNS, 10.1 µM.
With `CCCCCCCCCCCC(=O)OC[C@H](C[As](=O)(O)O)OC(=O)CCCCCCCCCCC`, the TGI in the assay on ACHN renal was 9.07 µM; with CCRF-CEM leukemia, above 100 µM; in the assay on HCC-2998 colon, 22.4 µM; in the assay with HCT-116 colon, 21.7 µM; in the assay on KM20L2 colon, 18.8 µM; with SK-MEL-28 melanoma, 11.9 µM. Also, the TGI in the assay with SNB-19 CNS is 17.7 µM; in the assay on SR leukemia, above 100 µM; in the assay on SW-620 colon, 27.4 µM; with TK-10 renal it was 15.1 µM; in the assay on XF 498 CNS, 24 µM.
In the case of `N#CCc1c(-c2ccccc2)n(S(=O)(=O)c2ccccc2)c2ccccc12`, the TGI with ACHN renal, with CCRF-CEM leukemia, with HCC-2998 colon, with HCT-116 colon, in the assay with KM20L2 colon and in the assay with SK-MEL-28 melanoma was above 100 µM throughout. The TGI in the assay on SNB-19 CNS, in the assay with SR leukemia, in the assay on SW-620 colon, in the assay on TK-10 renal and in the assay on XF 498 CNS was above 100 µM each time.
Take `CCC(C)C(N)C(=O)NC(CC(N)=O)C(=O)NC(CC(C)C)C(=O)NC(CCCCN)C(=O)NC(C)C(=O)NC(CC(C)C)C(=O)NC(C)C(=O)NC(C)C(=O)NC(CC(C)C)C(=O)NC(C)C(=O)NC(CCCCN)C(=O)NC(CCCCN)C(=O)NC(C(=O)NC(CC(C)C)C(N)=O)C(C)CC` (stereo not drawn): the TGI in the assay on ACHN renal was 27.2 µM; in the assay on CCRF-CEM leukemia it was 18.6 µM; in the assay with HCC-2998 colon it was above 56.3 µM; with HCT-116 colon, 29 µM; in the assay with KM20L2 colon it was above 58.6 µM; with SK-MEL-28 melanoma it was 22 µM. Moreover, the TGI was 27.8 µM in the assay on SNB-19 CNS, 46.1 µM in the assay on SR leukemia, 37.4 µM in the assay with SW-620 colon and 27.6 µM in the assay with TK-10 renal.
Turning to `CSC1(C)C(=O)Nc2c(OCc3ccccc3)cc([N+](=O)[O-])cc21` (stereo not drawn), the TGI in the assay with ACHN renal, in the assay with CCRF-CEM leukemia, with HCC-2998 colon, with HCT-116 colon, in the assay with SK-MEL-28 melanoma and in the assay on SNB-19 CNS was above 100 µM throughout. Also, the TGI with SR leukemia, in the assay on SW-620 colon and in the assay on TK-10 renal was above 100 µM each time.
Turning to `COc1ccc(/C=C/C(=O)/C=C/c2ccc(OC)cc2OC)c(OC)c1`, the TGI with ACHN renal was found to be 21.8 µM; in the assay with CCRF-CEM leukemia it was 13.5 µM; in the assay on HCC-2998 colon, 13.3 µM; in the assay with HCT-116 colon it was 21.3 µM; in the assay on SK-MEL-28 melanoma, 22.5 µM; with SNB-19 CNS, 82.8 µM. The TGI with SR leukemia worked out at 13.1 µM; with SW-620 colon it was 83.6 µM; in the assay with TK-10 renal it was 47.3 µM.
Take `COC(=O)C1CCC(=S)N1C(=O)OCc1ccccc1` (stereo not drawn): the TGI in the assay on ACHN renal, in the assay with CCRF-CEM leukemia, with HCC-2998 colon, in the assay on HCT-116 colon, in the assay with SK-MEL-28 melanoma and in the assay on SNB-19 CNS was above 100 µM each time. Moreover, the TGI in the assay on SR leukemia, in the assay on SW-620 colon and with TK-10 renal was above 100 µM in each case.
`O=c1c2ccccc2[nH]n1Cc1ccccc1`: the TGI in the assay with ACHN renal, with CCRF-CEM leukemia, in the assay on HCC-2998 colon, in the assay with HCT-116 colon, in the assay with SK-MEL-28 melanoma and in the assay with SNB-19 CNS was above 100 µM each time. For the same compound, the TGI in the assay with SR leukemia, in the assay on SW-620 colon and in the assay with TK-10 renal was above 100 µM each time.
As to `CCOC(=O)CC(c1ccccc1)C(C)(C(=O)OCC)C(=O)OCC` (stereo not drawn), the TGI in the assay with ACHN renal, in the assay with CCRF-CEM leukemia, in the assay on HCC-2998 colon, with HCT-116 colon, in the assay with SK-MEL-28 melanoma and in the assay on SNB-19 CNS was above 100 µM in each case. Further, the TGI in the assay with SR leukemia, in the assay on SW-620 colon and in the assay on TK-10 renal was above 100 µM in each case.

Source of the values: PubChem BioAssay (NCI).
